Experiments:
[1] = system: Wnt activity (SW480 colon carcinoma cells stably expressing the Sp5-Luc reporter gene); assay: Sp5-Luc reporter gene screening assay for Wnt activity in SW480 cells; type: cell-based; conditions: Homo sapiens, 42 h incubation, luminescence
Source text: The screening assay for Wnt activity is described as follows. Reporter cell lines can be generated by stably transducing cancer cell lines (e.g., colon cancer) or primary cells (e.g., IEC-6 intestinal cells) with a lentiviral construct that includes a Wnt-responsive promoter driving expression of the firefly luciferase gene.
SW480 colon carcinoma cells were transduced with a lentiviral vector expressing luciferase with a human Sp5 promoter consisting of a sequence of eight TCF/LEF binding sites. SW480 cells stably expressing the Sp5-Luc reporter gene and a hygromycin resistance gene were selected by treatment with 150 μg/ml of hygromycin for 7 days. These stably transduced SW480 cells were expanded in cell culture and used for all further screening activities. For Sp5-Luc reporter gene assays, the cells were plated at 10,000 cells/well in 96-well plates with growth medium containing 10% fetal calf serum and incubated overnight at 37° C. and 5% CO2. Each compound was dissolved in DMSO as a 10 mM stock in standard j-vials and used to prepare compound source plates in dose-response format with 3-fold serial dilutions and a 10 mM top concentration. Compound transfer from serially diluted source plates to assay plates containing the cells was accomplished using a pintool (Multimek 96, Beckman equipped with V&P Scientific FP1S50H pins) based liquid handling protocol. This protocol used a slotted pin to transfer 50 nl of compound from a source plate well to an assay plate well containing 50 μl of cells in growth medium. […] Control wells received 50 nl of DMSO treatment for normalization and calculating IC50 values. The treated cells were incubated at 37° C. and 5% CO2 for an additional forty-two hours. Following incubation, the growth medium was removed and 50 μl of BrightGlo luminescence reagent (Promega) was added to each well of the 96-well assay plates. The plates were placed on an orbital shaker for 5 min and then luminescence was quantified on the Victor3 (Perkin Elmer) plate reader. Readings were normalized to DMSO only treated cells, and normalized activities were utilized for IC50 calculations using the dose-response log (inhibitor) vs. response—variable slope (four parameters) nonlinear regression feature available in GraphPad Prism 5.0 or 6.0.

[2] = system: primary human fibroblasts derived from IPF patients (LL29 cells); assay: Inhibition of fibrosis (αSMA) in TGF-β1 treated primary human fibroblasts from IPF patients; type: cell-based; conditions: Fibroblast, 96 h, TGF-β1 20 ng/mL, 4 days, % αSMA positive cells
Source text: The above synthesized compounds were screened using primary human fibroblasts (derived from IPF patients) treated with TGF-β1 to determine their ability to inhibit the fibrotic process.
Primary human fibroblasts derived from IPF patients (LL29 cells) [^1Xiaoqiu Liu, et.al., “Fibrotic Lung Fibroblasts Show Blunted Inhibition by cAMP Due to Deficient cAMP Response Element-Binding Protein Phosphorylation”, Journal of Pharmacology and Experimental Therapeutics (2005), 315(2), 678-687; ^2Watts, K. L., et.al., “RhoA signaling modulates cyclin D1 expression in human lung fibroblasts; implications for idiopathic pulmonary fibrosis”, Respiratory Research (2006), 7(1), 88] were obtained from American Type Culture Collection (ATCC) and expanded in F12 medium supplemented with 15% Fetal Bovine Serum and Penicillin/Streptomycin.
Each compound was dissolved in DMSO as a 10 mM stock and used to prepare compound source plates. Serial dilution (1:2, 11-point dose-response curves from 10 μM to 1.87 nM) and compound transfer was performed using the ECHO 550 (Labcyte, Sunnyvale, Calif.) into 384-well clear bottom assay plates (Greiner Bio-One) with appropriate DMSO backfill for a final DMSO concentration of 0.1%. LL29 cells were plated at 1,500 cells/well in 80 μl/well F12 medium supplemented with 1% Fetal Bovine Serum. One hour after addition of the cells, TGF-β1 (Peprotech; 20 ng/mL) was added to the plates to induce fibrosis (ref. 1 and 2 above). Wells treated with TGF-β1 and containing DMSO were used as controls. Cells were incubated at 37° C. and 5% CO2 for 4 days. Following incubation for 4 days, SYTOX green nucleic acid stain (Life Technologies [Thermo Fisher Scientific]) was added to the wells at a final concentration of 1 uM and incubated at room temperature for 30 min. Cells were then fixed using 4% formaldehyde (Electron Microscopy Sciences), washed 3 times with PBS followed by blocking and permeabilization using 3% Bovine Serum Albumin (BSA; Sigma) and 0.3% Triton X-100 (Sigma) in PBS. Cells were then stained with antibody specific to α-smooth muscle actin (αSMA; Abcam) (ref. 1 and 2 above) in 3% Bovine Serum Albumin (BSA; Sigma) and 0.3% Triton X-100 (Sigma) in PBS, and incubated overnight at 4° C. Cells were then washed 3 times with PBS, followed by incubation with Alexa Flor-647 conjugated secondary antibody (Life Technologies [Thermo Fisher Scientific]) and DAPI at room temperature for 1 hour. Cells were then washed 3 times with PBS and plates were sealed for imaging. αSMA staining was imaged by excitation at 630 nm and emission at 665 nm and quantified using the Compartmental Analysis program on the CellInsight CX5 (Thermo Scientific). Dead or apoptotic cells were excluded from analysis based on positive SYTOX green staining. % of total cells positive for αSMA were counted in each well and normalized to the average of 11 wells treated with TGF-β1 on the same plate using Dotmatics' Studies Software. The normalized averages (fold change over untreated) of 3 replicate wells for each compound concentration were used to create dose-responses curves and EC50 values were calculated using non-linear regression curve fit in the Dotmatics' Studies Software. The EC50 values are reported.

| SMILES | IC50 [1] | EC50 [2] |
| --- | --- | --- |
| O=C(Nc1cncc(-c2ccc3[nH]nc(-c4nc5c(-c6ccccc6F)ccnc5[nH]4)c3c2)c1)C1CCCC1 [Compound 73, N-(5-(3-(7-(2-Fluorophenyl)-3H-imidazo[4,5-b]pyridin-2-yl)-1H-indazol-5-yl)pyridin-3-yl)cyclopentanecarboxamide] | 13 nM | 0.379 nM |
| Nc1cncc(-c2ccc3[nH]nc(-c4nc5c(-c6cccnc6)ccnc5[nH]4)c3c2)c1 [Compound 81, 5-(3-(7-(Pyridin-3-yl)-3H-imidazo[4,5-b]pyridin-2-yl)-1H-indazol-5-yl)pyridin-3-amine] | 5.8 nM | 0.009 nM |
| CC(C)Nc1cncc(-c2ccc3[nH]nc(-c4nc5c(-c6cccnc6)ccnc5[nH]4)c3c2)c1 [Compound 90, N-isopropyl-5-(3-(7-(pyridin-3-yl)-3H-imidazo[4,5-b]pyridin-2-yl)-1H-indazol-5-yl)pyridin-3-amine] | 12 nM | 0.078 nM |
| c1cncc(-c2ccnc3[nH]c(-c4n[nH]c5ccc(-c6cncc(CN7CCCCC7)c6)cc45)nc23)c1 [Compound 93, 2-(5-(5-(Piperidin-1-ylmethyl)pyridin-3-yl)-1H-indazol-3-yl)-7-(pyridin-3-yl)-3H-imidazo[4,5-b]pyridine] | > 10000 nM | 0.016 nM |
| c1ccc(CNCc2cncc(-c3ccc4[nH]nc(-c5nc6c(-c7cccnc7)ccnc6[nH]5)c4c3)c2)cc1 [Compound 101, N-Benzyl-1-(5-(3-(7-(pyridin-3-yl)-3H-imidazo[4,5-b]pyridin-2-yl)-1H-indazol-5-yl)pyridin-3-yl)methanamine] | > 10000 nM | 0.235 nM |
| CCNCc1cncc(-c2ccc3[nH]nc(-c4nc5c(-c6ccccn6)ccnc5[nH]4)c3c2)c1 [Compound 136, N-((5-(3-(7-(Pyridin-2-yl)-3H-imidazo[4,5-b]pyridin-2-yl)-1H-indazol-5-yl)pyridin-3-yl)methyl)ethanamine] | 1550 nM | 1.77 nM |
| O=C(Nc1cncc(-c2ccc3[nH]nc(-c4nc5c(-c6ccccn6)ccnc5[nH]4)c3c2)c1)c1ccccc1 [Compound 141, N-(5-(3-(7-(Pyridin-2-yl)-3H-imidazo[4,5-b]pyridin-2-yl)-1H-indazol-5-yl)pyridin-3-yl)benzamide] | 13.7 nM | 9.99 nM |
| O=C(Nc1cncc(-c2ccc3[nH]nc(-c4nc5c(-c6ccccn6)ccnc5[nH]4)c3c2)c1)C1CCC1 [Compound 150, N-(5-(3-(7-(Pyridin-2-yl)-3H-imidazo[4,5-b]pyridin-2-yl)-1H-indazol-5-yl)pyridin-3-yl)cyclobutanecarboxamide] | 15 nM | 0.133 nM |
| c1ccc(-c2ccnc3[nH]c(-c4n[nH]c5ccc(-c6cncc(CNCC7CCCC7)c6)cc45)nc23)nc1 [Compound 154, 1-Cyclopentyl-N-((5-(3-(7-(pyridin-2-yl)-3H-imidazo[4,5-b]pyridin-2-yl)-1H-indazol-5-yl)pyridin-3-yl)methyl)methanamine] | 1460 nM | 9.99 nM |
| CCC(=O)Nc1cncc(-c2ccc3[nH]nc(-c4nc5c(N6CCCCC6)ccnc5[nH]4)c3c2)c1 [Compound 157, N-(5-(3-(7-(Piperidin-1-yl)-3H-imidazo[4,5-b]pyridin-2-yl)-1H-indazol-5-yl)pyridin-3-yl)propionamide] | 15 nM | 0.605 nM |
| CN(C)c1cncc(-c2ccc3[nH]nc(-c4nc5c(N6CCCCC6)ccnc5[nH]4)c3c2)c1 [Compound 163, N,N-Dimethyl-5-(3-(7-(piperidin-1-yl)-3H-imidazo[4,5-b]pyridin-2-yl)-1H-indazol-5-yl)pyridin-3-amine] | 122 nM | 0.009 nM |
| CN(C)Cc1cncc(-c2ccc3[nH]nc(-c4nc5c(N6CCCCC6)ccnc5[nH]4)c3c2)c1 [Compound 169, N,N-Dimethyl-1-(5-(3-(7-(piperidin-1-yl)-3H-imidazo[4,5-b]pyridin-2-yl)-1H-indazol-5-yl)pyridin-3-yl)methanamine] | 1450 nM | 0.396 nM |
| O=C(Nc1cncc(-c2ccc3[nH]nc(-c4nc5c(N6CCCCC6)ccnc5[nH]4)c3c2)c1)C1CC1 [Compound 175, N-(5-(3-(7-(Piperidin-1-yl)-3H-imidazo[4,5-b]pyridin-2-yl)-1H-indazol-5-yl)pyridin-3-yl)cyclopropanecarboxamide] | 99.3 nM | 9.99 nM |
| FC1(F)CCN(Cc2cncc(-c3ccc4[nH]nc(-c5nc6c(N7CCCCC7)ccnc6[nH]5)c4c3)c2)C1 [Compound 181, 2-(5-(5-((3,3-Difluoropyrrolidin-1-yl)methyl)pyridin-3-yl)-1H-indazol-3-yl)-7-(piperidin-1-yl)-3H-imidazo[4,5-b]pyridine] | 2580 nM | 0.009 nM |
| Cc1cn(-c2ccnc3[nH]c(-c4n[nH]c5ccc(-c6cncc(NC(=O)C(C)(C)C)c6)cc45)nc23)cn1 [Compound 190, N-(5-(3-(7-(4-Methyl-1H-imidazol-1-yl)-3H-imidazo[4,5-b]pyridin-2-yl)-1H-indazol-5-yl)pyridin-3-yl)pivalamide] | 7.4 nM | 0.009 nM |
| Cc1cn(-c2ccnc3[nH]c(-c4n[nH]c5ccc(-c6cncc(NC(=O)C7CCC7)c6)cc45)nc23)cn1 [Compound 202, N-(5-(3-(7-(4-Methyl-1H-imidazol-1-yl)-3H-imidazo[4,5-b]pyridin-2-yl)-1H-indazol-5-yl)pyridin-3-yl)cyclobutanecarboxamide] | 4.7 nM | 0.018 nM |
| CC(C)C(=O)Nc1cncc(-c2ccc3[nH]nc(-c4nc5c(N6CCN(C)CC6)ccnc5[nH]4)c3c2)c1 [Compound 217, N-(5-(3-(7-(4-Methylpiperazin-1-yl)-3H-imidazo[4,5-b]pyridin-2-yl)-1H-indazol-5-yl)pyridin-3-yl)isobutyramide] | 173 nM | 2.83 nM |
| CN1CCN(c2ccnc3[nH]c(-c4n[nH]c5ccc(-c6cncc(CN7CCCCC7)c6)cc45)nc23)CC1 [Compound 223, 7-(4-Methylpiperazin-1-yl)-2-(5-(5-(piperidin-1-ylmethyl)pyridin-3-yl)-1H-indazol-3-yl)-3H-imidazo[4,5-b]pyridine] | 3070 nM | 0.009 nM |
| CN1CCN(c2ccnc3[nH]c(-c4n[nH]c5ccc(-c6cncc(NC(=O)C7CCCC7)c6)cc45)nc23)CC1 [Compound 229, N-(5-(3-(7-(4-Methylpiperazin-1-yl)-3H-imidazo[4,5-b]pyridin-2-yl)-1H-indazol-5-yl)pyridin-3-yl)cyclopentanecarboxamide] | 284 nM | 1.07 nM |

Source: patent US10280166B2, “2-(1H-indazol-3-yl)-3H-imidazo[4,5-B]pyridine and therapeutic uses thereof” (Samumed, LLC, priority 2014, dated 2019)
